Data taken from PMC9137581, “Identification of a Novel Class of Anti-Melanogenic Compounds, (Z)-5-(Substituted benzylidene)-3-phenyl-2-thioxothiazolidin-4-one Derivatives, and Their Reactive Oxygen Species Scavenging Activities” (Antioxidants, 2022).

Key:
[1] = DPPH radical scavenging activity assay; conditions: 1 mM, 30 min in the dark
Procedure: The effects of the (Z)-BPTT analogs 1–13 on DPPH radical scavenging activities were investigated as previously described with slight modification. Briefly, 180 μL of 0.2 mM DPPH in methanol was added to 96-well plates and then 20 μL of one of the (Z)-BPTT analogs 1–13 (10 mM in DMSO) or the positive control (10 mM L-ascorbic acid in distilled water) was added and mixed. The 96-well plates were incubated in the dark for 30 min and then the well optical densities were measured at 517 nm using a VersaMax™ microplate reader (Molecular Devices, Sunnyvale, CA, USA). All of these experiments were performed independently in triplicate. The DPPH radical scavenging activities of the analogs were calculated using the following formula:Scavenging activity (%) = (Ac − As) × 100/Ac where Ac is the optical density of the non-treated control and As is the optical density of the tested material.
The DPPH (2,2-diphenyl-1-picrylhydrazyl) radical scavenging abilities of the (Z)-BPTT analogs were investigated using L-ascorbic acid (vitamin C) as a positive control. The final concentrations of the analogs and of the positive control in the test samples and in the DPPH methanol solution were 1 and 0.18 mM, respectively. The scavenging activities of the analogs were assessed by measuring their optical densities at 517 nm after standing the samples in the dark for 30 min.

[2] = ABTS free radical scavenging activity assay; conditions: 100 µM, 2 min in the dark
Procedure: ABTS free radical scavenging activity was used to evaluate the antioxidant activities of analogs 1–13, as previously described. […] This ABTS free radical solution was then diluted with absolute methanol to an absorbance of 0.70 ± 0.02 at 734 nm. Aliquots (10 µL) of the test samples (10% DMSO + 90% EtOH) were added at a final concentration of 100 µM to 90 µL of the diluted ABTS free radical solution and incubated for 2 min in the dark at room temperature. Absorbances were then measured at 734 nm using a VersaMax™ microplate reader (Molecular Devices, Sunnyvale, CA, USA). The ABTS free radical scavenging activities of the test analogs were calculated using the following formula:Scavenging activity (%) = (Ac − As) × 100/Ac where Ac is the optical density of the non-treated control and As is the optical density of the tested material.
The effects of analogs 1–13 on ABTS (2,2′-azino-bis(3-ethylbenzothiazoline-6-sulfonic acid)) free radical scavenging activity were investigated using trolox as a positive reference control. The concentrations of the analogs and trolox in the test samples were 100 µM. The free radical scavenging activities were assessed by measuring the optical densities at 734 nm after standing in the dark for 2 min. […] Analogs 7–10, with no hydroxyl groups on the β-phenyl ring, had weak ABTS and DPPH radical scavenging activities.

[3] = target: T1, cellular tyrosinase in B16F10 cells (Mus musculus, UniProt P11344); assay: Cellular tyrosinase activity (L-DOPA oxidation in lysates); assay type: cell-based, murine; conditions: for inhibition of α-MSH plus IBMX-induced cellular tyrosinase activity compared with kojic acid: analog at 20 µM
T1 construct: endogenous in cells; host or cells: B16F10 murine melanoma cells (ATCC), stimulated with α-MSH and IBMX
T1 sequence (P11344 19-533): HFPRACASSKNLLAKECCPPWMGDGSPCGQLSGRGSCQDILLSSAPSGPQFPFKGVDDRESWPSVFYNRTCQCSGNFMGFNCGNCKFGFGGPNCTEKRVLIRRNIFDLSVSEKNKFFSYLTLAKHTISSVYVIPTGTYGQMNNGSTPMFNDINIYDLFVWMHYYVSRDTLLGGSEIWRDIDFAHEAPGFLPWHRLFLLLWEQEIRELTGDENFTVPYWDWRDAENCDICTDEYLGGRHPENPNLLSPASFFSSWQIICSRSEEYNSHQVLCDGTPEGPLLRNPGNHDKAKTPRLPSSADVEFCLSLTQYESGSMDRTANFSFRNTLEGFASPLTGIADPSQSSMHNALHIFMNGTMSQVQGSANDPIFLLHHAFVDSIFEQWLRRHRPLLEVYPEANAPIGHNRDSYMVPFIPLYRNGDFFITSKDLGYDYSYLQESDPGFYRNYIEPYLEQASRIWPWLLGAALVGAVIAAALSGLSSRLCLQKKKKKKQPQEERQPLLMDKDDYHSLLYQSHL
Procedure: The cellular tyrosinase activity was examined by assessing the oxidation rate of L-DOPA, as was previously described, with a slight modification. In brief, B16F10 cells were seeded at a density of 1 × 10^5 cells/well in a 6-well plate and allowed to adhere to the well bases using the same conditions that were used for cell culturing. […] After incubation for 48 h under the same conditions that were used for cell culturing, the cells were rinsed twice with PBS and then exposed to 100 µL of a lysis buffer solution (90 µL of 50 mM phosphate buffer in pH 6.5, 5 µL of 2 mM PMSF, and 5 µL of 20% Triton X-100) and held for 30 min at −80 °C. After defrosting, the cell lysates were centrifuged at 12,000 rpm for 30 min at 4 °C. Then, 10 mM L-DOPA (20 µL) was mixed with the supernatants (80 µL) of the lysates in a 96-well plate. The absorbances of these mixtures were measured at 492 nm every 10 min for 1 h at 37 °C using a microplate reader (VersaMax™, Molecular Devices, Sunnyvale, CA, USA). All of these experiments were conducted individually in triplicate. […] Briefly, B16F10 cells were seeded in 6-well culture plates and pretreated with four different concentrations (0, 5, 10, or 20 µM) of each of the four analogs for 1 h, and then the cells were co-stimulated with α-MSH and IBMX for 48 h at 37 °C so as to increase their cellular tyrosinase activity. Their optical densities (ODs) were then measured using a microplate reader at 492 nm in order to quantify the dopachrome production. The inhibitory effect of each analog on cellular tyrosinase activity was evaluated using these ODs. Kojic acid (20 µM) was used as a positive control.

Row | inhibition of α-MSH plus IBMX-induced cellular tyrosinase activity compared with kojic acid [3] | cellular tyrosinase activity as percentage of non-treated control ([3]; 10 µM, α-MSH plus IBMX co-stimulated) [%] | Structure (SMILES) | DPPH radical scavenging activity [1] [%] | ABTS free radical scavenging activity (in words) [2] | ABTS free radical scavenging activity [2] [%] | inhibition of cellular tyrosinase activity compared with kojic acid ([3]; analog at 5 µM)
1 | more than kojic acid at 20 µM | – | O=C1/C(=C/c2ccc(O)cc2)SC(=S)N1c1ccccc1 [Analog 1, (Z)-5-(4-Hydroxybenzylidene)-3-phenyl-2-thioxothiazolidin-4-one] | 14.7 | weak | – | –
2 | – | < 100 | O=C1/C(=C/c2ccc(O)c(O)c2)SC(=S)N1c1ccccc1 [Analog 2, (Z)-5-(3,4-Dihydroxybenzylidene)-3-phenyl-2-thioxothiazolidin-4-one] | 92.2 | – | 96.9 | significantly inhibited tyrosinase activity more than kojic acid did at 20 µM
3 | more than kojic acid at 20 µM | – | O=C1/C(=C/c2ccc(O)cc2O)SC(=S)N1c1ccccc1 [Analog 3, (Z)-5-(2,4-Dihydroxybenzylidene)-3-phenyl-2-thioxothiazolidin-4-one] | 57.0 | – | 82.0 | –
4 | more than kojic acid at 20 µM | – | COc1ccc(/C=C2\SC(=S)N(c3ccccc3)C2=O)cc1O [Analog 6, (Z)-5-(3-Hydroxy-4-methoxybenzylidene)-3-phenyl-2-thioxothiazolidin-4-one] | 27.2 | – | – | –
